“Also recorded” adds a separate entry of the source.
Assays:
ABCA1 = test: Immunoblotting for ABCA1 in MIN6 β-cells; type: cell-based, mouse; settings: MIN6, Q3G-treated
Procedure: The corresponding photographs of the immunoblotting results are also shown. MIN6 cells were incubated for 24 h in the presence of 16 μM Q3G. Cell lysates were analyzed by semi-quantitative immunoblotting using different antibodies successively.
(§1) Mouse insulinoma MIN6 cells were cultured in a 5% CO2-95% air atmosphere at 37° C. in DMEM medium containing 10% heat-inactivated fetal bovine serum, 1 mM Na-pyruvate, 2 mM L-glutamine, 25 mM D-glucose, and 28 μM β-mercaptoethanol. Q3G at a specific final concentration was supplemented to the culture medium and incubation was conducted for a selected length of time. Media were collected, spun at 600 g to sediment suspended cells, supplemented with 0.5 volumes of 3×RIPA-PIC (1×: 50 mM Tris-HCl, pH 8, 150 mM NaCl, 1% NP-40, 0.5% Na-deoxycholate and 0.1% SDS and PIC). Cells were lysed in 1×RIPA-PIC for immuno-blotting, or in RNA extraction buffer for qRT-PCR.
Cell lysates were fractionated by SDS-PAGE and electrophoretically transferred onto a polyvinylidene fluoride membrane. […] The signal was captured on X-ray film and immunoreactive bands analyzed by densitometry on a Syngene's ChemiGenius^2XE Bio Imaging System (Cambridge, Mass.) within the dynamic range of the instrument. […]

MIN6 β-cells = test: GSIS assay (glucose-stimulated insulin secretion, insulin ELISA); type: cell-based, mouse; settings: MIN6, stimulation with 18 mM glucose, 30 min
Procedure: The assays for PCSK9 and insulin were conducted as prescribed by kit manufacturers, using a Thermo Scientific plate reader. For example, PCSK9 levels in conditioned media were measured using the human PCSK9 ELISA kit from Circulex, as specified the manufacturer. The assay was a sandwich immunoassay using two antibodies (A and B) recognizing different PCSK9 epitopes. Briefly, aliquot of diluted media were overlaid on wells coated with anti-PCSK9 antibody A. After 1-h incubation, the wells were washed, overlaid with a solution of HRP-conjugated anti-PCSK9 antibody B, and incubated for 1 h. They were washed again, and overlaid with a solution of tetra-methylbenzidine as a chromogenic substrate for HRP. After 15 min, the reaction was stopped with […] and the absorbance of the reaction mixtures measured by spectrophotometry at 450 nm. All the steps were performed at room temperature. Standards consisted of recombinant human PCSK9.
Cells were seeded and grown to 80% confluence. Prior to GSIS assay, fresh medium containing 3 mM Glucose and 10% FBS medium (low-glucose medium or LGM) without or with Q3G was substituted and incubation resumed for 6 h to adapt the cells to low glucose. Fresh LGM without or with Q3G was substituted and supplemented or not with glucose to the final concentration of 18 mM. […]

LDLR mRNA [1] = test: qRT-PCR for LDLR mRNA in MIN6 β-cells; type: cell-based, mouse; parameters: increase in LDLR mRNA: dose or concentration left out as unconfirmed; settings: MIN6, 24 h
Procedure: as §1
For the mouse studies, the levels of specific mRNAs were quantified in a PCR-based fluorogenic assay using the Taqman technology (Holland et al., 1991). Briefly, total RNA was extracted using the RNeasy extraction kit and reverse-transcribed into cDNA using random hexameric primers and the Superscript II RNase H-Reverse Transcriptase. The cDNA was used as a template to produce PCR amplicons using FastStart TaqMan ProbeMaster-Rox master mix, primer pairs and the appropriate fluorescent probes) in the Stratagene Mx3005P thermocycler. Standard curves were established using varying amounts of pre-quantified amplicons of each transcript. The level of mRNA for the TATA-box binding protein (TBP) was used for normalization.
MIN6 β-cells were incubated for 24 h in the presence of different concentrations of Q3G. Total RNA was extracted and analyzed by qRT-PCR for the levels of mRNA for PCSK9, LDLR, ABCA1 and ABCG1.

LDLR mRNA [2] = test: Quantitative RT-PCR for LDLR mRNA in Huh7 cells; type: cell-based, human; settings: Huh7, 24 h, 10% LPDS, 0 to 10 μM Q3G; maximum at 2 μM, relative to no Q3G
Procedure: At passage, Huh7 cells were routinely seeded at sub-confluence (˜10^6 cells/10-cm dish) in Dulbecco's modified Eagle's medium (DMEM) containing 10% fetal bovine serum (FBS) or LPDS (for experiments) and 50 μg/ml gentamycin. They were incubated overnight at 37° C., in a humidified 5% CO2-95% air atmosphere. Cells were treated or not with Q3G at defined concentrations and for defined lengths of time. Media were collected and centrifuged at 200 g for 5 min to sediment suspended cells; supernatants were collected and supplemented with 0.33 volumes of a 3×-concentrated PIC. Cell monolayers were rinsed with ice-cold phosphate-buffered saline (PBS); they were overlaid with […] the RIPA lysis buffer (50 mM Tris-HCl, pH 8, 150 mM NaCl, 1% NP-40, 0.5% Na-deoxycholate and 0.1% SDS) supplemented with 1× PIC. After 20 min in an ice bath, the lysates were centrifuged at 14,000 g and 4° C. for 20 min, and supernatants were collected. Conditioned media and lysates were stored at −20° C. until analysis. […]
Standard curves were established using varying amounts of purified and quantified cDNA amplicons of each mRNA. […]
Huh7 cells, hepatocyte derived cellular carcinoma cells, were incubated for 24 h in medium containing 10% lipoprotein-depleted serum (LPDS) and 0 to 10 μM Q3G. The level of LDLR mRNA was measured by quantitative real-time RT-PCR; that of the LDLR protein by semi-quantitative immunoblotting. […]

O=c1c(O[C@@H]2O[C@H](CO)[C@@H](O)[C@H](O)[C@H]2O)c(-c2ccc(O)c(O)c2)oc2cc(O)cc(O)c12 [Q3G, quercetin-3-O-β-D-glucoside]
relative amount of ABCA1 protein compared with mRNA (ABCA1): in concordance with the relative amounts of mRNA
glucose-stimulated insulin secretion, treated versus untreated cells (MIN6 β-cells): comparable; also recorded: without affecting
effect on LDL-receptor mRNA levels (LDLR mRNA [1]; Q3G 8 mM and above): increased
effect on LDLR mRNA levels (LDLR mRNA [1]; Q3G up to 4 mM): does not affect
increase in LDLR mRNA (LDLR mRNA [1]; maximum Q3G concentration used): 1.8 fold
increase of intracellular content of LDLR mRNA (maximum) (LDLR mRNA [2]): 2 ×
